Test results from paper PMC12356143 (RSC Medicinal Chemistry, 2025).
Where “and” joins values, the source holds several entries; their conditions need not be identical. Identical values can stand only once.

Key:
M^pro L50F/E166A/L167F = M^pro L50F/E166A/L167F (Severe acute respiratory syndrome coronavirus 2, UniProt P0DTD1, E3429A/L3313F/L3430F); settings: for K M / k cat: pH 7.6
[1] = molecular target: SARS-CoV-2 M^pro L50F/E166A/L167F (Severe acute respiratory syndrome coronavirus 2, UniProt P0DTD1, E3429A/L3313F/L3430F); assay type: biochemical

| Compound | Km (M^pro L50F/E166A/L167F) | K M (M^pro L50F/E166A/L167F) | k cat (M^pro L50F/E166A/L167F) | inhibition of L50F/E166A/L167F, result in words [1] | other results |
| --- | --- | --- | --- | --- | --- |
| 2-Abz-KTSAVLQ↓SGY^(NO2)RKME-OH | 250 µM | 250 µM | 0.19 ± 0.04 s⁻¹ | – | – |
| 2-Abz-SVTLQ↓SGY^(NO2)R-OH | 320 µM | 320 µM | 0.26 s⁻¹ and 0.26 ± 0.05 s⁻¹ | – | lower catalytic efficiency of the M^pro triple mutant compared to the WT M^pro (M^pro L50F/E166A/L167F): ~35 times |
| COc1cccc2[nH]c(C(=O)N3C[C@H](C(F)(F)F)C[C@H]3C(=O)N[C@H](C#N)C[C@@H]3CCNC3=O)cc12 [compound 1] | – | – | – | inactive | – |
| CC(C)C[C@H](NC(=O)OCc1cccc(F)c1)C(=O)N[C@@H](Cc1cscn1)C(O)S(=O)(=O)O (some centres unmarked) [compound 2] | – | – | – | does not significantly alter binding potency | – |
| O=C(NC(Cc1ccccc1)C(=O)NC(CC1CCNC1=O)C(O)S(=O)(=O)O)OCc1cccc(F)c1 (centres unmarked) [compound 3] | – | – | – | inactive | – |
| COc1cccc2[nH]c(C(=O)NC(CC3CC3)C(=O)NC(CC3CCNC3=O)C(O)S(=O)(=O)O)cc12 (centres unmarked) [compound 4] | – | – | – | – | improvement in inhibition compared to nirmatrelvir [1]: approximately 30 fold |
